The source of these data is patent US5561110A, “Method for the treatment of the complications and pathology of diabetes” (Peptide Technology Limited, priority 1994, dated 1996).

Entries after “also recorded” stand apart in the source; their conditions may differ.

In data set [1] the test system is Salmonella typhimurium TA 100. Put plainly: Ames test, plate incorporation, his- to his+ reversion. On the procedure: Preparation of glycated compounds was performed according to Kim et al. (1991). In brief, D-glucose (1M) and each of the following: L-carnosine, L-lysine, L-alanine (all 1M) were dissolved in distilled water, the pH adjusted to 7 and the mixtures heated at 100° C. for 80 min. The solutions (50 μl and 250 μl ) were evaluated against strain TA 100 of Salmonells typhimurium using the plate incorporation method (Maron & Ames, 1983) with or without metabolic activation by a standard rat liver microsomal (S-9) preparation.
Salmonella tyrphimurium TA 100 indicator strain his^- to his^+ reversion system. Data represent the mean number of revertants per plate and their standard deviation for the test solutions and controls with and without metabolic stimulation by rat liver microsomal (S-9) preparation.
(The Ames test detects mutagens through reverse mutation in bacteria.)

Data set [2] deals with diabetic models. The following applies: 30 weeks of feeding; cited from earlier work.
The test system of data set [3] is ovalbumin. The data set is described as follows: Glycation of ovalbumin by DHA with anti-glycator, gel filtration on Superose 6. It counts as biochemical. The following applies: for effectiveness as anti-glycator, in words: ovalbumin + DHA, 60° C., 7 hours. As for the experimental part: Gelfiltration Chromatography of Glycated Proteins HPLC Specifications:
COLUMN Superose 6, Pharmacia
SAMPLE: 100μ of Protein Sample (Approximately 100 μg)
Calibration was performed using Pharmacia high molecular weight (HMW) and low molecular weight (LMW) calibration kit.
To compare the effect of both carnosine and aminoguanidine on glycation bovine serum albumin (BSA) and ovalbumin was incubated with a constant amount of DHA and varying concentrations of either anti-glycator at 60° C. At the start of the reaction and after seven hours aliquots were taken and the progress of the reaction analysed by gel filtration on a Superose 6 column. Crosslinking or fragmentation of protein became clearly visible as a change in retention time compared to the untreated protein used as control. Some compounds eluted after theoretical retention time for the smallest compound. They tend to interfere with the column resin even at high ionic strength and presence of a detergent (Tween 20). They are not necessary small compounds but rather highly charged and reactive. […] In all aminoguanidine samples uncharacterised reaction products are formed predominantly at high concentrations (described as low molecular weight form "LMW" because the retention time is longer then observed for all other compounds). […] LMW were also observed when ovalbumin was replaced by bovine serum albumin in the incubation mixture (not shown). The LMW forms were never present in the camosine samples. A good measure for the effectiveness of an
Legend: ovalbumin was incubated with DHA for 7 hours in the presence of
various concentrations of either carnosine or aminoguanidine. Reaction
products were separated on a gelfiltration column (Superose 6) and peaks
grouped according to their retention times: HMW, high molecular weight
(15-30 min); albumin monomer (35 min); and late eluting compounds LMW, lo
molecular weight (>40 min). Carnosine and aminoguanidine concentration
[control] 0 mM, [A] 600 mM, [B] 300 mn, [C] 100 mM, [D] 50 mM.
On the technique in general: In gel filtration, larger molecules generally elute earlier.

Data set [4] concerns bovine serum albumin. The data set is described as follows: Dihydroxyacetone-induced modification (non-enzymic glycosylation, gel formation) of bovine serum albumin. It counts as biochemical. Particulars: BSA 50 mg/ml, 250 mM dihydroxyacetone, 250 mM L-carnosine, 23° C., 4 weeks. As for the experimental part:
Physiological concentrations of bovine serum albumin (50 mg/ml in 50 mM Na-phosphate buffer pH 7.0) were incubated with or without 250 mM dihydroxyacetone in the presence and absence of 250 mM L-carnosine at 23° C. for 4 weeks. The experiment was performed under sterile conditions and the ionic strength was the same in all vials.

Data set [5] has as its system streptozotocin induced diabetic rat. The data set is described as follows: Formation of cataracts in streptozotocin induced diabetic rats. It counts as in vivo. The following applies: after 8 week on carnosine diet (56 days), 2% in drinking water. On the procedure:
(§1) Male Sprague-Dawley rats weighing 200-250 g and 6 weeks of age were randomised to the following three treatment groups: control, diabetic, and carnosine-treated diabetic rats. Diabetes was induced with streptozotozen STZ(60 mg/kg body weight in citrate buffer, pH 4.5, i.v.), and all animals with plasma glucose levels >20 mM after 1 week were included in the study. Diabetic rats were randomised to receive either no therapy or 2% carnosine in drinking water.
Cataract is an opacification of the ocular lens sufficient to impair vision. Diabetes has been associated with cataract for many years and many laboratory experiments support the view that diabetes is the cause of one form of cataract. Diabetes in animals can be induced by streptozotozin and opacity of the lens starts to develop by 20 days after injection but dense opacities appear only after about 100 days depending on age at injection.
In cataract adducts of sugars to proteins including lens proteins have been identified and quantified. In most tissues there is little accumulation of late Maillard products even in diabetes but proteins in the lens nucleus have time not only to accumulate early glycation products but also for them to change into yellow Maillard products. […] Since this was measured at 56 days, the half way mark of the experiment, the trend indicates a reduction in cataract formation by carnosine feeding.

Data set [6] deals with mammals. Particulars: cited from earlier work.
Data set [7] deals with streptozotocin induced diabetic rat. The data set is described as follows: Albuminuria, glycated haemoglobin and blood glucose in diabetic rats. Type of data set: in vivo. Particulars: week 8. As for the experimental part:
as §1

Data set [8] is described as follows: Body weight and organ weights of cholesterol-fed rabbits. Type of data set: in vivo, rabbit. On the procedure:
(§2) Male New Zealand white cross rabbits fed a high cholesterol (2%) diet were randomised to control or carnosine treatment 2% and plasma was assayed for cholesterol and triglycerides and carnosine. All animals received 100 g of food pellets/day and free access to water.
(§3) At the end of the 8 week treatment period, the rabbits were anaesthetised with pentobarbitone (325 mg/kg) and the total aorta removed. The arch, thoracic and abdominal regions were isolated by cutting the aorta circumferentially 1.0 cm proximal to the first pair of intercostal arteries and 0.3 cm above the coeliac artery. The adventitia was carefully dissected away, and the artery longitudinally cut to expose the intimal surface. The aorta was fixed in 10% buffered formalin for 48 hours. The lipid plaques in these vessels were then stained using Sudan IV and mounted with an aqueous mounting medium (Kaiser's Glycerol Jelly). The lesioned areas were directly traced from the mounted sections using an image analyser (Eye Com 850 image processor). Computer-aided planimetry was used to macroscopically determine the percentage of the affected area. Representative segments of atherosclerotic plaque were removed for confirmation by light microscopy. Results are expressed as mean ±SEM.

Data set [9] deals with Male New Zealand white cross rabbits fed a high cholesterol (2%) diet. The data set is described as follows: Atherosclerotic plaque formation in aorta of cholesterol-fed rabbits. It counts as in vivo, rabbit. Particulars: 8 weeks. As for the experimental part:
as §2, §3
Coronary heart disease is one of the most common causes of deaths in diabetics and non-diabetics alike. […]

Regarding `CC(=O)Nc1ccc2c(c1)Cc1ccccc1-2` [2AAF, reference compound], the “Revertants per Plate with TA 100, With S-9” value in data set [1] (positive control, dose not given) turned out to be 500.
`N=C(N)NN` [Aminoguanidine, aminoguanidine, reference compound]: the “amount of glycated haemoglobin” value in [2] is on record as “does not reduce”. For the same compound, the “Percent Area of Chromatogram, HMW” value in data set [3] (after 7 hours, [A] 600 mM) worked out at 0%; in data set [3] (after 7 hours, [B] 300 mn), 8%; in [3] (after 7 hours, [C] 100 mM), 0%; in data set [3] (after 7 hours, [D] 50 mM) it was 38%; in data set [3] (t0 hours, [A] to [D] 600-50 mM), 0%. Further, the “Percent Area of Chromatogram, LMW” value in data set [3] (after 7 hours, [A] 600 mM) amounted to 69%; in data set [3] (after 7 hours, [B] 300 mn) it was 72%; in data set [3] (after 7 hours, [C] 100 mM) it was 49%; in data set [3] (after 7 hours, [D] 50 mM) it was 22%; in data set [3] (t0 hours, [A] to [D] 600-50 mM), 0%. The “Percent Area of Chromatogram, Monomer” value in data set [3] (after 7 hours, [A] 600 mM) came out at 31%; in data set [3] (after 7 hours, [B] 300 mn), 20%; in data set [3] (after 7 hours, [C] 100 mM), 41%; in [3] (after 7 hours, [D] 50 mM), 40%; in data set [3] (t0 hours, [A] to [D] 600-50 mM), 100%.
On to `NCCC(=O)N[C@@H](Cc1cnc[nH]1)C(=O)O` [carnosine, β-alanyl-L-histidine], for which the “Revertants per Plate with TA 100, With S-9” value in [1] (Dose 50 μl) was 179 ± 15; in data set [1] (Dose 250 μl), 149 ± 13. In addition, the “Revertants per Plate with TA 100, Without S-9” value stood at 154 ± 14 in [1] (Dose 50 μl) and 158 ± 11 in data set [1] (Dose 250 μl). In [1] (TA 100, with or without S-9), the mutagenicity entry is listed as “not mutagenic”. In addition, the “Resultant effects (appearance of albumin incubation)” value in data set [4] is given as “dark brown, fluid; also recorded: remained fluid”. In addition, the “lens clarity compared to diabetic control group” value in [5] was “higher clarity (less opacity)”. For the same compound, in [6] (in vivo), the “toxicity, in words” value is recorded as “virtually non-toxic”. Also, the “level that can be administered” value in data set [6] (mammals) was 5-10 g/kg body weight. Besides, the “Blood Glucose (mean + SEM)” value in data set [7] came to 22.63 ± 3.00 mM. Besides, in data set [7], the “Percent Glycated Haemoglobin (HbAlc)” value amounted to 4.49 ± 0.14%. For the same compound, in data set [8] (8 week treatment period), the “body weight versus control, in words” value is recorded as “no difference”. Also, the “weight of various organs versus control, in words” value in data set [8] (8 weeks) is on record as “No difference”. The entries for the “Body Weight” value in [8] (Week 0) and in data set [8] (Week 8) were 3.33 ± 0.09 kg and 2.68 ± 0.12 kg, respectively. For the same compound, in data set [8] (after 8 weeks treatment), the “Weight of organs, Heart” value was determined as 6.12 ± 0.27 g. Also, in data set [8] (after 8 weeks treatment), the “Weight of organs, Kidney” value came to 17.53 ± 0.69 g. The “Weight of organs, Liver” value in data set [8] (after 8 weeks treatment) was 124.40 ± 6.36 g. Also, the “Percent Area of Chromatogram, HMW” value amounted to 9% in data set [3] (after 7 hours, [A] 600 mM); 6% in [3] (after 7 hours, [B] 300 mn); 3% in [3] (after 7 hours, [C] 100 mM); 25% in data set [3] (after 7 hours, [D] 50 mM); 0% in data set [3] (t0 hours, [A] to [D] 600-50 mM). Besides, the “Percent Area of Chromatogram, LMW” value is on record as 0% in [3] (after 7 hours, [A] 600 mM); 0% in [3] (after 7 hours, [B] 300 mn); 0% in data set [3] (after 7 hours, [C] 100 mM); 0% in data set [3] (after 7 hours, [D] 50 mM); 0% in [3] (t0 hours, [A] to [D] 600-50 mM). The “Percent Area of Chromatogram, Monomer” value in data set [3] (after 7 hours, [A] 600 mM) is 91%; in [3] (after 7 hours, [B] 300 mn) it was 94%; in data set [3] (after 7 hours, [C] 100 mM), 97%; in data set [3] (after 7 hours, [D] 50 mM), 75%; in [3] (t0 hours, [A] to [D] 600-50 mM), 100%. Further, the “effectiveness as anti-glycator, in words” value in data set [3] was “more effective at all concentrations compared to aminoguanidine”; in [3] (listed as Carnosine), “reduced formation of high molecular weight compounds and was slightly more effective at low concentration compared to aminoguanidine”. Also, in [9], the “atherosclerotic plaque formation, in words” value is “can reduce but not prevent plaque formation”.
